In US20200283482A1, “BICYCLIC PEPTIDE LIGAND PRR-A CONJUGATES AND USES THEREOF” (BicycleRD Limited, priority 2017, published 2020):
Starred links: 1 amine or outer side, 2 acyl side, 3 side chain; linkers in the order of their positions; H or OH if unused. Positions of bridges follow the written chain, without caps; N, C: chain ends. Non-standard residues stand in square brackets, D forms with d. Residues, ends and D or L forms follow the SMILES beside them. *: point of attachment. X1 = CCOCc1nc2c(NC(=O)OCCSSC(C)CCC(=O)*)nc3ccccc3c2n1CC(C)(C)O; 1Nal = N[C@@H](Cc1cccc2ccccc12)C(=O)O; TBMB = c1c(C[*:1])cc(C[*:3])cc1C[*:2]; Tle = CC(C)(C)[C@H](N)C(=O)O; βAla = NCCC(=O)O; Sar = CNCC(=O)O

How the values were obtained:
[1] = system: B16F10 xenograft; test: In vivo efficacy of I-8 alone or with antiPD-1 mAb in B16F10 xenograft; set-up: species or system C57BL/6J mice
Protocol: B16F10 tumor cells were maintained in vitro as a monolayer culture in EMEM medium supplemented with 10% heat inactivated fetal bovine serum at 37° C. in an atmosphere of 5% CO2 in air. The tumor cells were routinely subcultured twice weekly by trypsin-EDTA treatment. The cells growing in an exponential growth phase were harvested and counted for tumor inoculation.
6-8 week old female C57BL/6J mice were inoculated subcutaneously at the right flank with B16F10 tumor cells (5×10^5) in 0.1 ml of PBS for tumor development. Animals were randomized when the average tumor volume reached 65 mm^3.
Conjugates were formulated in 25 mM Histidine, 10% sucrose pH=7 buffer (vehicle) and administered intravenously. Anti-PD1 antibody (Wuxi AppTech, Shanghai, China) was formulated in aqueous buffer and administered intraperitoneally.
Tumor volume was measured three times weekly in two dimensions using a caliper, and the volume was expressed in mm^3 using the formula: V=0.5 a×b^2 where a and b are the long and short diameters of the tumor, respectively. The tumor size was then used for calculations of T/C value. The T/C value (in percent) is an indication of antitumor effectiveness; T and C are the mean volumes of the treated and control groups, respectively, on a given day.
TGI was calculated for each group using the formula: TGI (%)=[1−(Ti−T0)/(Vi−V0)]×100; Ti is the average tumor volume of a treatment group on a given day, T0 is the average tumor volume of the treatment group on the day of treatment start, Vi is the average tumor volume of the vehicle control group on the same day with Ti, and V0 is the average tumor volume of the vehicle group on the day of treatment start.
Summary statistics, including mean and the standard error of the mean (SEM), are provided for the tumor volume of each group at each time point.
Statistical analysis of difference in tumor volume among the groups was conducted on the data obtained at the best therapeutic time point after the final dose.
A one-way ANOVA was performed to compare tumor volume among groups, and when a significant F-statistics (a ratio of treatment variance to the error variance) was obtained, comparisons between groups were carried out with Games-Howell test. All data were analyzed using Prism. P<0.05 was considered to be statistically significant.

[2] = Plasma stability, human; type: in vitro ADME; conditions: pH 7.4; human plasma, 2 μM, 37° C.; read-out: T1/2 (human)
[3] = Plasma stability, rat; type: in vitro ADME; conditions: pH 7.4; rat plasma, 2 μM, 37° C.; read-out: T1/2 (rat)
[4] = Plasma pharmacokinetics of Bicycle conjugates in CD-1 mice; type: in vivo; conditions: 3 mg/kg IV, male CD-1 mice
Protocol: Male CD-1 mice were dosed with 3 mg/kg of Bicycle Conjugate formulated in 25 mM Histidine HCl, 10% sucrose pH 7 via tail vein injection. Serial bleeding (about 80 μL blood/time point) was performed via submadibular or saphenous vein at each time point. All blood samples were immediately transferred into prechilled microcentrifuge tubes containing 2 μL K2-EDTA (0.5M) as anti-coagulant and placed on wet ice.

[5] = Study 2, day 9, I-8 20 mpk iv tiw, aPD1 10 mpk ip qw

With `CCOCc1nc2c(NC(=O)OCCSSC(C)CCC(=O)NCCC(=O)N(C)CC(=O)N(C)CC(=O)N(C)CC(=O)N(C)CC(=O)N(C)CC(=O)N(C)CC(=O)N(C)CC(=O)N(C)CC(=O)N(C)CC(=O)N(C)CC(=O)N[C@@H](C)C(=O)N[C@H]3CSCc4cc5cc(c4)CSC[C@H](NC(=O)[C@@H](C)NC(=O)[C@H](Cc4cccc6ccccc46)NC(=O)[C@H](CCC(=O)O)NC(=O)[C@H](CC(N)=O)NC(=O)[C@@H](C)NC3=O)C(=O)N[C@@H](CCC(=O)O)C(=O)N[C@@H](CC(=O)O)C(=O)N[C@@H](Cc3ccccc3)C(=O)N[C@@H](Cc3ccc(O)cc3)C(=O)N[C@@H](CC(=O)O)C(=O)N[C@@H](C(C)(C)C)C(=O)N[C@H](C(N)=O)CSC5)nc3ccccc3c2n1CC(C)(C)O` (stereo partly drawn) [I-8] ({X1-βAla}-[Sar][Sar][Sar][Sar][Sar][Sar][Sar][Sar][Sar][Sar]AC[dA]NE[1Nal][dA]CEDFYD[Tle]C-NH2; linker 12-18-25 via TBMB) the T/C ([1]; Study 1, 20 mpk iv tiw, day 9) was 54.9%, the TGI ([1]; Study 1, 20 mpk iv tiw, day 9) was 50.0% and the “Tumor Volume (Mean ± SEM)” value ([1]; Study 1, 20 mpk iv tiw, day 9) was 356 ± 60 mm^3. The T/C ([1]; Study 1, 60 mpk iv tiw, day 9) was 25.6%, the TGI ([1]; Study 1, 60 mpk iv tiw, day 9) was 82.9% and the “Tumor Volume (Mean ± SEM)” value ([1]; Study 1, 60 mpk iv tiw, day 9) was 166 ± 26 mm^3. For the same compound, the T/C [1, 5] was 86.8%, the TGI [1, 5] was 13.7% and the “Tumor Volume (Mean ± SEM)” value [1, 5] was 1678 ± 1129 mm^3. The half-life at 2 μM [2] was 120 to 360 min, the half-life at 2 μM [3] was < 120 min and the systemic elimination [4] was “rapid systemic elimination”.
